The target in the experiment is T1, CETP (from rabbit serum) (Oryctolagus cuniculus, UniProt P22687).
T1 construct: native CETP in whole rabbit serum, not purified; BioVision fluorescent CE transfer kit (introduction describes human CETP, 476 residues, PDB 2OBD, not the assayed protein)
T1 sequence (P22687 2-497): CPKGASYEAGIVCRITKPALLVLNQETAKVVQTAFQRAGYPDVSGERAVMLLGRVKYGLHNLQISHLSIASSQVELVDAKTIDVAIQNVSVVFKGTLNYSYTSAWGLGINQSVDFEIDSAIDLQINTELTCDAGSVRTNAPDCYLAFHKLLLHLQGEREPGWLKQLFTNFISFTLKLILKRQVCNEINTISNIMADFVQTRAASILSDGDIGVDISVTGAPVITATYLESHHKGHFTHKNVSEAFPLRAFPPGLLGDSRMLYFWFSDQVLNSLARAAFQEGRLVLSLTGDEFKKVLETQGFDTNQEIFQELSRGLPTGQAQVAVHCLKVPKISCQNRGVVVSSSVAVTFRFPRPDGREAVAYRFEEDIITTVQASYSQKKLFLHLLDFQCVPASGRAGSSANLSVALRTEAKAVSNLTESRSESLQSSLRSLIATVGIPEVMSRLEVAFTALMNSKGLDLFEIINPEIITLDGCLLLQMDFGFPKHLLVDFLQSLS
Kind of experiment: fluorescent neutral lipid (CE) transfer assay, BioVision kit. It counts as biochemical. The settings on record: read-out: In vitro % inhibition of CETP at 10 μM. The source says:
fluorescent neutral lipid (CE) transfer assay, BioVision kit on CETP (from rabbit serum)

For orientation: inhibition means how much of the control response was suppressed. With `COc1cccc(CNc2ccc(C(=O)c3ccc(C)cc3)cc2)c1` [compound 19, [4-(3-Methoxybenzylamino)phenyl]-p-tolyl-methanone], the inhibition at 10 µM came out at 16.4 ± 3%.
Consider `Cc1ccc(C(=O)c2ccc(NCc3cccc(C(F)(F)F)c3)cc2)cc1` [compound 21, p-Tolyl-[4-(3-trifluoromethylbenzylamino)phenyl]-methanone], for which the inhibition at 10 µM turned out to be 16.7 ± 0.6%.
For `COc1ccc(C(=O)c2ccc(NCc3ccc(C(F)(F)F)cc3)cc2)c(OC)c1` [compound 30, (2,4-Dimethoxyphenyl)-[4-(4-trifluoromethylbenzylamino)phenyl]-methanone], the inhibition at 10 µM amounted to 19.8 ± 2.9%.
Under `COc1ccc(C(=O)c2ccc(NCc3cccc(C(F)(F)F)c3)cc2)c(OC)c1` [compound 29, (2,4-Dimethoxyphenyl)-[4-(3-trifluoromethylbenzylamino)phenyl]-methanone] stands 19.5 ± 0.6%; under `Cc1ccc(C(=O)c2ccc(NCc3ccc(C(F)(F)F)cc3)cc2)cc1` [compound 22, p-Tolyl-[4-(4-trifluoromethylbenzylamino)phenyl]-methanone], 12.6 ± 2.6%.

The record behind these values is article PMC6257782, “Design, Synthesis, and Biological Evaluation of Benzylamino-Methanone Based Cholesteryl Ester Transfer Protein Inhibitors” (Molecules, 2010).
